{"source": "patent US10695406B2", "about": "“Modulation of cellular stress using a B-cell oxidative and/or endoplasmic reticulum stress inhibitor and a targeting agent” (THE UNIVERSITY OF QUEENSLAND, priority 2014, dated 2020)", "tested_on": "Murine MIN6N8 cells", "assay": "ERAI-sXBP1 reporter ER stress in MIN6N8 cells with 0.5 mM palmitate", "type": "cell-based", "conditions": "15.4 nM, 24 hours, no palmitate", "experimental": "Cell culture: Murine MIN6N8 cells were tested negative for mycoplasma. Cells were routinely cultured in phenol-red free DMEM (Life Technologies) containing 25 mM glucose (3.4 g/L sodium bicarbonate, 50 U/mL penicillin and streptomycin, 71.5 μM β-mercaptoethanol and 10% heat inactivated fetal bovine serum) and transferred to DMEM as above with 5.5 mM glucose 48 h prior to experimentation. Human LS174T cells were cultured in DMEM containing 10% heat-inactivated fetal bovine serum, 50 U mL^−1 penicillin and streptomycin.\nER Stress Measurement: MIN6N8 cells were transfected with the ERAI reporter plasmid (F-XBP1ΔDBD-venus, using Lipofectamine 2000 according to the manufacturer's instructions. For ERAI there was negligible fluorescence in the absence of ER stressors, but upon induction of ER stress, splicing of XBP1 mRNA by IRE1a results in the translation of Venus but not an active form of XBP1. Fluorescence was measured (excitation: 485 nm; emission: 520 nm) using a POLARstar Omega plate reader and cells were treated 48 h after transfection. […] After 24 h, ERAI-sXBP1 GFP reporter fluorescence was measured."}
{"substance": "IL-22: interleukin-22; recombinant murine IL-22 (R&D SYSTEMS) in the mouse experiments", "values": [{"measurement": "ER stress caused by the protein alone", "result": "did not cause ER stress"}]}
